Measurements taken from patent US20170209499A1, “Propolis and Extracts Thereof for the Treatment of Skin Cancers and Improvement of Skin Health” (Manuka Health New Zealand Limited, priority 2014, published 2017).

Tested on: human melanoma cell line A-2058
Test: MTT cell proliferation assay, human melanoma cell line A-2058
Type: cell-based
Details: for Mean OD: MTT Optical Density at 570 nm
Text: This example describes the in vitro bioassay used for determining the anti-proliferative activity of test compounds and cyclodextrin-encapsulated propolis complexes against human skin cancer cell lines. The present example tests anti-proliferative efficacy against the human melanoma cell line, A-2058. The cyclodextrin-encapsulated propolis complexes tested are those described in Example 1. The NZ propolis was the same propolis used to manufacture the cyclodextrin complexes CD1-CD3. The Brazilian Green propolis was the same propolis used to manufacture the cyclodextrin complex CD4. The test samples were dissolved in 15% Ethanol (EtOH)/HBSS to make a working solution, which was then diluted 10 times to give a final concentration in the cells of 50 μg/ml unless indicated otherwise.
The three human skin cancer cell lines were: • 1) Human Melanoma cell line (A-2058). • 2) Human Epidermoid (Squamous) Carcinoma cell line (A-431). • 3) Human Basal Cell Carcinoma cell line (TE 354.T).
The cell lines were revived from cryostorage and cultured in the presence of the test and reference samples. An MIT assay was then performed on the cultures to determine the effect of the samples on the cell viability and proliferation. The percentage standard error of the mean was assessed and extreme outliers were removed if the SEM%>15. Preliminary statistical significance was assessed with an independent Student t-test at α<0.05 (with and without outliers). The methodology was based on the procedures reported by: • Ahn, N G, Campbell J S (1993). […] Proc Natl Acad Sci. 90: 5143-5147. • Galan-Cobo, A et al (2014). Functional inhibition of aquaporin-3 with a gold-based compound induces blockage of cell proliferation. J Cellul. Physiol. 229: 1787-1801. • Roomi, M W, Kalinovsky, J et al (2013) Effect of a nutrient mixture on matrix metalloproteinase-9 dimers in various human cancer cell lines. Inter 3 Oncol. 44: 936-942. • Huang, H C, Lin, M K et al (2013). Cardenolides and bufadienolide glycosides from Kalanchoe tubiflora and evaluation of cytotoxicity. Planta Medica. 79: 1362-1369. • Tilli, C M L J, Stavast-Kooy, A J W et al (2003). The garlic-derived organosulfur component ajoene decreases basal cell carcinoma tumor size by inducing apoptosis. Arch Dermatol Res. 295: 117-123.
• 1. Human melanoma cell line (A-2058, ATCC CRL11147) was obtained from ATCC, Bethesda, Md., USA. • 2. Human squamous (epidermoid) carcinoma cell line (A-431, ATCC CRL1555) was obtained from ATCC, Bethesda, Md. USA. • 3. Human basal cell carcinoma cell line (TE 354.T, ATCC CRL7762) was obtained from ATCC, Bethesda, Md., USA. • 4. Dulbecco's Modified Eagle's Medium (DMEM) was obtained from GIBCO (12100-038). 10% Foetal Bovine Serum (FBS), 100 U/ml Penicillin and […] Streptomycin were added before use. • 5. Penicillin-streptomycin solution, stored at −20° C. consisting of 10000 units/ml penicillin and 10 mg/ml streptomycin in 0.9% NaCl was obtained from Sigma (#P-0781). • 6. Trypsin-EDTA solution consisting of 0.25% Trypsin/EDTA was obtained from Invitrogen (#15400054). • 7. Phosphate buffered saline (PBS) was prepared in-house. • 8. Hanks Balanced Salt Solution (HBSS), stored at 4° C. was obtained from GIBCO (#14185-052). • 9. Foetal Bovine Serum (FBS) stored at −20° C. was obtained from GIBCO (#10091-148). • 10. MTT Reagent, 100 mg/vial, was obtained from Sigma (M-2128) and then dissolved in PBS at 10 mg/ml and stored at −20° C. A 5 mg/ml MTT solution was prepared in PBS and stored at 4° C. as the working solution. • 11. MU lysis buffer: 10% sodium dodecyl sulphate (SDS)/45% Dimethyl Formamide was prepared by dissolving 20 g SDS in 100 ml of double-distilled water (DDW), and then adding 90 ml of Dimethyl Formamide to the solution. The pH was adjusted to 4.7 by glacial acetic acid, and DDW added up to a final volume of 200 ml. • 12. 5-Fluorouracil (5-FU) was supplied by Sigma (F-6627). Three working solutions were prepared at 19.5 μg/ml. 6.5 μg/ml and 1.95 μg/ml dissolved in 15% Ethanol/HBSS. […]

## O=c1[nH]cc(F)c(=O)[nH]1 [5-fluorouracil, reference compound]
A-2058, 0.195 μg/ml
  Mean OD: 0.1937
A-2058, 0.65 μg/ml
  Mean OD: 0.1832
A-2058, 1.95 μg/ml
  Mean OD: 0.1847
Homo sapiens, A2058, 24 h, A-2058, final conc. 0.195 μg/ml, 24 hr incubation, vs cells only
  inhibition at 0.195 µg/mL: 3.73%
Homo sapiens, A2058, 24 h, A-2058, final conc. 0.65 μg/ml, 24 hr incubation, vs cells only
  inhibition at 0.65 µg/mL: 8.99%
Homo sapiens, A2058, 24 h, A-2058, final conc. 1.95 μg/ml, 24 hr incubation, vs cells only
  inhibition at 1.95 µg/mL: 8.25%
